Key:
[1] = tested on: B16-F0 melanoma cell line; assay: Melanin production suppressing activity in B16-F0 melanoma cells; type: cell-based, mouse; conditions: for Melanin amount (% of control): three days with 2 mM theophylline; for Suppressive action on melanin production (in words): summary of Table 2, compared with arbutin or kojic acid
Method: B16-F0 melanoma cell line of mouse origin, purchased from Dainippon Pharmaceutical Co., Ltd. was used in the experiment. In 60-mm petri dish, 200,000 cells were incubated for five days in a medium (D-MEM*+10% FBS*) supplemented with 0.1% D-glucosamine hydrochloride, an inhibitor of carbohydrate synthesis, to halt melanin synthesis and turn the culture white. Following the 5-day culture, the cells were washed with PBS(−)* to remove D-glucosamine hydrochloride, and 2 mM theophylline (250-fold concentrated solution/distilled water), a phosphodiesterase inhibitor, was added to raise intracellular cAMP and thereby promote the recovery of tyrosinase synthesis. At the same time, a test compound (250-fold concentrated solution/PBS(−)) was added. Three days after the addition of theophylline and the test compound, the cells were harvested by trypsin treatment. The cell pellets were resuspended in 1 ml of PBS(−), 0.1 ml of which was used for counting cells, and 0.9 ml for melanin determination. Determination of melanin was carried out by washing the cell pellets once with 5% trichloroacetic acid, ethanol/diethyl ether (3:1), and then diethyl ether, adding 1 ml of 2 N NaOH to lyse the cells, measuring optical density at 420 nm, and comparing the result with a calibration curve produced with reference standard.

elastase = assay: Elastase inhibiting activity (Suc(Ome)-Ala-Ala-Pro-Val-MCA fluorescence); type: biochemical; conditions: for Elastase inhibition rate (%): 25° C., pH 7.5; for Elastase inhibiting activity (in words): summary of Table 3
Method: 96-well plates were used. 1 mM of Suc(Ome)-Ala-Ala-Pro-Val-MCA, 30 μl of a test sample, 210 μl of Tris-NaCl Buffer (25° C., pH 7.5) and 30 μl of 1 unit/ml elastase were added and fluorescence was measured every minute (Ex. 360/40 nm, Em. 460/40 nm). Inhibition rates of elastase activity were determined based on a calibration curve produced with AMC (7-amino-4-methyl-coumarin) reference standard.

[2] = target: T1, Tyrosine hydroxylase from rat brain (Rattus norvegicus, UniProt P04177); assay: Tyrosine hydroxylase inhibiting activity; type: biochemical; conditions: for Tyrosine hydroxylase inhibition rate: 37° C., 40 minutes, pH 6.0
T1 construct: Tyrosine hydroxylase from rat brain was used in the test; from tissue; host or cells: rat brain
T1 sequence (P04177 whole entry): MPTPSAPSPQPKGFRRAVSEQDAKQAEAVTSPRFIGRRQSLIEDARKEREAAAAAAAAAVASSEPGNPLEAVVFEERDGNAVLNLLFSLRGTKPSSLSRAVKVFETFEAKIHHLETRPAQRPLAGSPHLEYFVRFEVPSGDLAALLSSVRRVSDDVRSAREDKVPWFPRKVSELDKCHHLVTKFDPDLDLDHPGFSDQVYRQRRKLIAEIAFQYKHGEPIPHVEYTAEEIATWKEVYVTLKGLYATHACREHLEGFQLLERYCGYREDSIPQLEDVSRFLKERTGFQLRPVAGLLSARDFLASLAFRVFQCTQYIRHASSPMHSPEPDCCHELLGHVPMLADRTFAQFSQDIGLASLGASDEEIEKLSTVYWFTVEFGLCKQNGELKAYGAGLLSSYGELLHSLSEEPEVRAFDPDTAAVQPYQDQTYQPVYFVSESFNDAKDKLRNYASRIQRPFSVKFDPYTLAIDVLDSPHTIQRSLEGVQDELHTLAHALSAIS
Method: Tyrosine hydroxylase from rat brain was used in the test.
A test compound added to 100 μM tyrosine containing L-[3,5-^3H] tyrosine (0.5 μCi/assay), 1 mg of tyrosine hydroxylase, 0.2 mM of (6R)-5,6,7,8-tetrahydro-L-biopterin, 1.8 mg/ml catalase, 5 mM dithiothreitol (in MES buffer, pH 6.0) was incubated at 37° C. for 40 minutes. The reaction was terminated by addition of 7.5% charcoal in 1 M hydrochloric acid.
^3H2O derived from 3,4-dihydroxyphenylalanine (DOPA) was determined by liquid scintillation.

Row | Elastase inhibition rate (%) (elastase; 0.03 mM) | Elastase inhibition rate (%) (elastase; 0.1 mM) | Elastase inhibition rate (%) (elastase; 0.3 mM) | Elastase inhibition rate (%) (elastase; 1 mM) | Tyrosine hydroxylase inhibition rate ([2]; test compound 0.1 mM) [%] | Tyrosine hydroxylase inhibition rate ([2]; test compound 1 mM) [%] | Structure (SMILES) | Melanin amount (% of control) ([1]; 0.1 mM) | Melanin amount (% of control) ([1]; 0.3 mM) | Melanin amount (% of control) ([1]; 1 mM) | Melanin amount (% of control) ([1]; 0.03 mM) | Suppressive action on melanin production (in words) [1] | Elastase inhibiting activity (in words) (elastase) | Melanin amount (% of control) ([1]; 10 mM) | Tyrosine hydroxylase inhibiting activity (in words) ([2]; summary of Table 1)
1 |  |  |  |  |  |  | OC[C@H]1O[C@@H](Oc2ccc(O)cc2)[C@H](O)[C@@H](O)[C@@H]1O [Arbutin, reference compound] | 97.29 % of control | 88.86 % of control | 83.02 % of control |  |  |  |  | 
2 | 25.29 | 56.87 | 77.45 | 93.01 |  |  | CC(C)C[C@H](NC(=O)N[C@H](C(=O)N[C@@H](CCC(N)=O)C(=O)N[C@@H](C)C=O)[C@@H]1CCNC(=N)N1)C(=O)O [Elastinal, reference compound] |  |  |  |  |  |  |  | 
3 | 94.74 |  |  |  |  |  | O=C([O-])CCCCCNC(=O)CCCCC1CC[S][Zn][S]1.[Na+] (centres unmarked) [Example 5, N-(6,8-dimercaptooctanoyl)-6-aminohexanoic acid sodium salt zinc chelate compound] | 27.69 % of control | 9.85 % of control |  | 64.43 % of control | potent suppressive action on melanin production | comparable to Elastinal |  | 
4 | 83.33 |  |  |  |  |  | O=C(CCCCC1CC[S][Zn][S]1)NC(Cc1ccccc1)C(=O)[O-].[Na+] (centres unmarked) [Example 7, N-(6,8-dimercaptooctanoyl)phenylalanine sodium salt zinc chelate compound] | 37.78 % of control |  |  | 71.43 % of control | potent suppressive action on melanin production | comparable to Elastinal |  | 
5 | 7.41 | 68.52 | 88.89 |  |  |  | CSCCC(NC(=O)CCCCC1CC[S][Zn][S]1)C(=O)O (centres unmarked) [Example 9, N-(6,8-dimercaptooctanoyl)methionine zinc chelate compound] | 50.18 % of control | 16.41 % of control |  | 63.05 % of control | potent suppressive action on melanin production | comparable to Elastinal |  | 
6 |  |  |  |  |  |  | O=c1cc(CO)occ1O [Kojic acid, reference compound] | 92.70 % of control | 88.04 % of control | 68.80 % of control |  |  |  | 18.73 % of control | 
7 |  |  |  |  | 11 | 10 | O=C(CCCCC1CCSS1)NCCS(=O)(=O)[O-].[Na+] (stereo not drawn) [Reference Example 1, N-α-lipoylaminoethanesulfonic acid sodium salt] |  |  |  |  |  |  |  | 
8 | −2.94 | 11.76 | 10.29 |  | 2 | 1 | O=C(O)CCCCC1CCSS1 (stereo not drawn) [α-lipoic acid, reference compound] |  |  |  |  |  | did not show any elastase inhibiting activity |  | no tyrosine hydroxylase inhibiting activity

Row | Structure (SMILES) | Elastase inhibition rate (%) (elastase; 0.03 mM) | Elastase inhibition rate (%) (elastase; 0.1 mM) | Elastase inhibition rate (%) (elastase; 0.3 mM) | Elastase inhibition rate (%) (elastase; 1 mM) | Tyrosine hydroxylase inhibition rate ([2]; test compound 0.1 mM) [%] | Tyrosine hydroxylase inhibition rate ([2]; test compound 1 mM) [%] | Melanin amount (% of control) ([1]; 0.1 mM) | Melanin amount (% of control) ([1]; 0.3 mM) | Melanin amount (% of control) ([1]; 1 mM) | Melanin amount (% of control) ([1]; 0.03 mM) | Suppressive action on melanin production (in words) [1] | Elastase inhibiting activity (in words) (elastase) | Melanin amount (% of control) ([1]; 10 mM) | Tyrosine hydroxylase inhibiting activity (in words) ([2]; summary of Table 1)
9 | O=C(CCCCC1CC[S][Zn][S]1)NCCS(=O)(=O)[O-].[Na+] (centres unmarked) [Example 1, N-(6,8-dimercaptooctanoyl)aminoethanesulfonic acid sodium salt zinc chelate compound] |  |  |  |  | 15 | 53 | 30.01 % of control | 12.28 % of control |  | 78.33 % of control | potent suppressive action on melanin production |  |  | 
10 | O=C([O-])CCCNC(=O)CCCCC1CC[S][Zn][S]1.[Na+] (centres unmarked) [Example 6, N-(6,8-dimercaptooctanoyl)-γ-amino-n-butyric acid sodium salt zinc chelate compound] | 78.95 |  |  |  |  |  | 29.20 % of control | 9.73 % of control |  | 61.18 % of control | potent suppressive action on melanin production | comparable to Elastinal |  | 
11 | O=C(CCCCC1CC[S][Zn][S]1)Nc1ccccc1C(=O)[O-].[Na+] (centres unmarked) [Example 8, N-(6,8-dimercaptooctanoyl)anthranilic acid sodium salt zinc chelate compound] | 24.07 | 48.15 | 72.22 |  |  |  | 47.64 % of control | 16.74 % of control |  | 72.47 % of control | potent suppressive action on melanin production | comparable to Elastinal |  | 
